From ChEMBL document CHEMBL1124638, “2,4-Diamino-5-benzylpyrimidines and analogues as antibacterial agents. 10. 2,4-Diamino-5-(6-quinolylmethyl)- and -[(tetrahydro-6-quinolyl)methyl]pyrimidine derivatives. Further specificity studies” (J Med Chem, 1989) come the findings set out here.

Converted amounts (≈) assume the structure as drawn. Some results are limits rather than exact numbers.

Usually MIC stands for the lowest concentration found to suppress growth.

One assay relates to Salmonella typhimurium. The assay can be described thus: Comparative in vitro antibacterial activity with trimethoprim against Salmonella Typhimurium S 8587. Format: functional, Salmonella enterica subsp. enterica serovar Typhimurium. The conditions noted are these: Salmonella enterica.
Assay [1] can be described thus: Comparative in vitro antibacterial activity with trimethoprim against Salmonella typhi CN512. The format is functional, salmonella typhosa.
The next assay has as its system Citrobacter freundii. The assay can be described thus: Comparative in vitro antibacterial activity with trimethoprim against Citrobacter freundii 2200/77. The format is functional.
The subject of the next assay is Streptococcus pyogenes. In words: Comparative in vitro antibacterial activity of compound with trimethoprim against Streptococcus pyogenes CN10. Format: functional.
The test system of a further assay is Vibrio cholerae. The assay can be described thus: Comparative in vitro antibacterial activity with trimethoprim against Vibrio cholerae ATCC 14035. Format: functional.
The subject of another assay is Streptococcus agalactiae. In words: Comparative in vitro antibacterial activity with trimethoprim against Streptococcus agalactiae CN1143. The format is functional.
Assay [2] has as its target Dihydrofolate reductase (Neisseria gonorrhoeae, UniProt P04174). The assay can be described thus: Inhibitory activity against Dihydrofolate reductase in Neisseria gonorrhoeae. The conditions noted are these: read-out: I50.
The next assay has as its system Staphylococcus aureus. The assay can be described thus: Comparative in vitro antibacterial activity with trimethoprim against Staphylococcus aureus CN491. The format is functional.
Assay [3] concerns Bordetella bronchiseptica. In words: Comparative in vitro antibacterial activity with trimethoprim against Bordetella bronchiseptica CN385. Format: functional.
Assay [4] concerns the target T1, Dihydrofolate reductase (Rattus norvegicus, UniProt Q920D2).
T1 sequence (Q920D2 whole entry): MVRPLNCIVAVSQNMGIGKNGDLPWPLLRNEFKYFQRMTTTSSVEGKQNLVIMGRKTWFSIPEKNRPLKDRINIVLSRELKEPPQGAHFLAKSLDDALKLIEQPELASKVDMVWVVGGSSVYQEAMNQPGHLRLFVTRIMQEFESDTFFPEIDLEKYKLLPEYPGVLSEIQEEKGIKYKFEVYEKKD
In words: Inhibitory activity against dihydrofolate reductase in rat liver. To be noted: read-out: I50.

The test system of another assay is Proteus mirabilis. In words: Comparative in vitro antibacterial activity with trimethoprim against Proteus mirabilis S2409. The format is functional.
Assay [5] has as its system Mycolicibacterium smegmatis. In words: Comparative in vitro antibacterial activity with trimethoprim against Mycobacterium smegmatis S 3254. The format is functional.
A further assay has as its system Pasteurella multocida. The assay can be described thus: Comparative in vitro antibacterial activity with trimethoprim against Pasteurella multocida ATCC 6587. The format is functional.
Another assay deals with Proteus vulgaris. In words: Comparative in vitro antibacterial activity with trimethoprim against Proteus vulgaris CN329. Format: functional.
In a further assay the test system is Serratia marcescens. In words: Comparative in vitro antibacterial activity with trimethoprim against Serratia marcescens CN2398. The format is functional.
A further assay concerns Enterococcus faecalis. In words: Comparative in vitro antibacterial activity with trimethoprim against Streptococcus faecalis CN478. The format is functional.
The next assay deals with Escherichia coli. The assay can be described thus: Comparative in vitro antibacterial activity with trimethoprim against Escherichia coli CN314. Format: functional.
In a further assay the test system is Klebsiella pneumoniae. The assay can be described thus: Comparative in vitro antibacterial activity with trimethoprim against Klebsiella pneumoniae CN3632. Format: functional.
A further assay concerns Klebsiella aerogenes. In words: Comparative in vitro antibacterial activity with trimethoprim against Enterobacter aerogenes 2200/86. Format: functional.
The next assay relates to Shigella flexneri. The assay can be described thus: Comparative in vitro antibacterial activity with trimethoprim against Shigella flexneri CN6007. The format is functional.

Dihydrofolate reductase (Neisseria gonorrhoeae, UniProt P04174), sequence (P04174 whole entry): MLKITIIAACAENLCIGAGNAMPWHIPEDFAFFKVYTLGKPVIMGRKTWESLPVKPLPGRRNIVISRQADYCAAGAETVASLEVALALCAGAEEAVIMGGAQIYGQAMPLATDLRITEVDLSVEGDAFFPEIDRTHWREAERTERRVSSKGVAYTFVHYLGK

As to `COc1cc(Cc2cnc(N)nc2N)cc2c1N(CCOC(C)=O)CCC2C` (stereo not given), the MIC was 30 µg/mL (≈ 77.8 µM) in the assay with Salmonella typhimurium; 30 µg/mL (≈ 77.8 µM) in [1]; 10 µg/mL (≈ 25.9 µM) in the assay on Citrobacter freundii; 10 µg/mL (≈ 25.9 µM) in the assay on Streptococcus pyogenes; 10 µg/mL (≈ 25.9 µM) against Vibrio cholerae; 1 µg/mL (≈ 2.59 µM) in the assay with Streptococcus agalactiae. In addition, the MIC against Staphylococcus aureus turned out to be 3 µg/mL (≈ 7.78 µM); in assay [3], 3 µg/mL (≈ 7.78 µM); in the assay with Proteus mirabilis, 30 µg/mL (≈ 77.8 µM); in assay [5], 3 µg/mL (≈ 7.78 µM); in the assay with Pasteurella multocida, 10 µg/mL (≈ 25.9 µM); against Proteus vulgaris it was 10 µg/mL (≈ 25.9 µM). The minimal inhibitory concentration (MIC) against Serratia marcescens is > 10 µg/mL; with Enterococcus faecalis, 1 µg/mL (≈ 2.59 µM); against Escherichia coli, 30 µg/mL (≈ 77.8 µM); in the assay with Klebsiella pneumoniae, 10 µg/mL (≈ 25.9 µM); with Klebsiella aerogenes it was 30 µg/mL (≈ 77.8 µM); against Shigella flexneri it was 30 µg/mL (≈ 77.8 µM). Besides, the IC50 at Dihydrofolate reductase [2] stood at 0.63 µM; at Dihydrofolate reductase [4], 190 µM.

In the case of `COc1cc(Cc2cnc(N)nc2N)cc2c1NCC(CO)C2` (stereo not given), the minimal inhibitory concentration (MIC) was found to be 10 µg/mL (≈ 31.7 µM) against Salmonella typhimurium; 10 µg/mL (≈ 31.7 µM) in assay [1]; 30 µg/mL (≈ 95.1 µM) against Citrobacter freundii; 10 µg/mL (≈ 31.7 µM) with Streptococcus pyogenes; 3 µg/mL (≈ 9.51 µM) in the assay with Vibrio cholerae; 10 µg/mL (≈ 31.7 µM) in the assay with Streptococcus agalactiae. Also, the MIC with Staphylococcus aureus was 3 µg/mL (≈ 9.51 µM); in assay [3], 30 µg/mL (≈ 95.1 µM); against Proteus mirabilis it was > 30 µg/mL; in assay [5], 10 µg/mL (≈ 31.7 µM); with Pasteurella multocida it was 30 µg/mL (≈ 95.1 µM); in the assay with Proteus vulgaris it was 100 µg/mL (≈ 317 µM). The minimal inhibitory concentration (MIC) in the assay on Serratia marcescens is > 10 µg/mL; against Enterococcus faecalis, 3 µg/mL (≈ 9.51 µM); in the assay with Escherichia coli, 10 µg/mL (≈ 31.7 µM); in the assay with Klebsiella pneumoniae, 10 µg/mL (≈ 31.7 µM); against Klebsiella aerogenes, 30 µg/mL (≈ 95.1 µM); against Shigella flexneri, 30 µg/mL (≈ 95.1 µM). Further, the IC50 was found to be 0.41 µM on Dihydrofolate reductase [2] and 64 µM at Dihydrofolate reductase [4].

For `COc1cc(Cc2cnc(N)nc2N)cc2c1NCCC2`, the MIC in the assay on Salmonella typhimurium worked out at 3 µg/mL (≈ 10.5 µM); in assay [1], 3 µg/mL (≈ 10.5 µM); with Citrobacter freundii, 10 µg/mL (≈ 35 µM); in the assay on Streptococcus pyogenes, 3 µg/mL (≈ 10.5 µM); against Vibrio cholerae, 1 µg/mL (≈ 3.5 µM); in the assay with Streptococcus agalactiae it was 3 µg/mL (≈ 10.5 µM). Besides, the minimum inhibitory concentration (MIC) was found to be 3 µg/mL (≈ 10.5 µM) against Staphylococcus aureus; 1 µg/mL (≈ 3.5 µM) in [3]; 3 µg/mL (≈ 10.5 µM) in the assay on Proteus mirabilis; 1 µg/mL (≈ 3.5 µM) in [5]; 3 µg/mL (≈ 10.5 µM) with Pasteurella multocida; 3 µg/mL (≈ 10.5 µM) with Proteus vulgaris. In addition, the MIC in the assay on Serratia marcescens was determined as 3 µg/mL (≈ 10.5 µM); in the assay with Enterococcus faecalis it was 3 µg/mL (≈ 10.5 µM); with Escherichia coli it was 10 µg/mL (≈ 35 µM); with Klebsiella pneumoniae, 3 µg/mL (≈ 10.5 µM); against Klebsiella aerogenes, 3 µg/mL (≈ 10.5 µM); against Shigella flexneri, 10 µg/mL (≈ 35 µM). The figures for the IC50 on Dihydrofolate reductase [2] and at Dihydrofolate reductase [4] were 0.51 µM and 76 µM, respectively.

`CCc1cc(Cc2cnc(N)nc2N)cc2c1N(C)CCC2C` (stereo not given): the MIC in the assay with Salmonella typhimurium was 1 µg/mL (≈ 3.21 µM); in [1], 10 µg/mL (≈ 32.1 µM); against Citrobacter freundii it was 3 µg/mL (≈ 9.63 µM); in the assay with Streptococcus pyogenes, 1 µg/mL (≈ 3.21 µM); against Vibrio cholerae, 3 µg/mL (≈ 9.63 µM); in the assay on Streptococcus agalactiae, 1 µg/mL (≈ 3.21 µM). Also, the MIC against Staphylococcus aureus stood at 0.03 µg/mL (≈ 0.0963 µM); in [3], 1 µg/mL (≈ 3.21 µM); in the assay with Proteus mirabilis, 3 µg/mL (≈ 9.63 µM); in [5], 3 µg/mL (≈ 9.63 µM); in the assay with Pasteurella multocida, 3 µg/mL (≈ 9.63 µM); against Proteus vulgaris, 10 µg/mL (≈ 32.1 µM). The minimal inhibitory concentration (MIC) in the assay on Serratia marcescens stood at 3 µg/mL (≈ 9.63 µM); in the assay with Enterococcus faecalis, 0.03 µg/mL (≈ 0.0963 µM); against Escherichia coli, 3 µg/mL (≈ 9.63 µM); in the assay on Klebsiella pneumoniae, 3 µg/mL (≈ 9.63 µM); against Klebsiella aerogenes, 1 µg/mL (≈ 3.21 µM); against Shigella flexneri, 10 µg/mL (≈ 32.1 µM). Moreover, the IC50 at Dihydrofolate reductase [2] is 0.3 µM; on Dihydrofolate reductase [4], 44 µM.

For `COc1cc(Cc2cnc(N)nc2N)cc2c1NCC(COC(C)=O)C2` (stereo not given), the MIC against Salmonella typhimurium is 30 µg/mL (≈ 83.9 µM); in assay [1], 30 µg/mL (≈ 83.9 µM); with Citrobacter freundii, 30 µg/mL (≈ 83.9 µM); against Streptococcus pyogenes, 3 µg/mL (≈ 8.39 µM); with Vibrio cholerae it was 10 µg/mL (≈ 28 µM); against Streptococcus agalactiae it was 10 µg/mL (≈ 28 µM). The MIC against Staphylococcus aureus stood at 10 µg/mL (≈ 28 µM); in assay [3], 10 µg/mL (≈ 28 µM); with Proteus mirabilis it was 30 µg/mL (≈ 83.9 µM); in [5], 30 µg/mL (≈ 83.9 µM); against Pasteurella multocida it was 30 µg/mL (≈ 83.9 µM); in the assay with Proteus vulgaris, 30 µg/mL (≈ 83.9 µM). The MIC in the assay with Serratia marcescens is > 10 µg/mL; with Enterococcus faecalis, 3 µg/mL (≈ 8.39 µM); in the assay on Escherichia coli, 30 µg/mL (≈ 83.9 µM); against Klebsiella pneumoniae, 100 µg/mL (≈ 280 µM); against Klebsiella aerogenes it was 30 µg/mL (≈ 83.9 µM); against Shigella flexneri, 30 µg/mL (≈ 83.9 µM). The IC50 was 0.16 µM at Dihydrofolate reductase [2] and 61 µM at Dihydrofolate reductase [4].
